test system: Escherichia coli ATCC 25922; assay: 50% growth inhibitory concentration (IC50) determination, Iso-Sensitest broth dilution; type: cell-based; settings: Escherichia coli, ATCC25922, 16 h, strain Escherichia coli ATCC 25922; 10-point broth dilution, optical density at 600 nm over 16 h; read-out: Escherichia coli growth inhibition IC50
In short: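 10-point twofold Iso-Sensitest broth dilution (e.g. 50 to 0.097 μM final) with DMSO stocks, incubated at 35±2° C. Growth followed by OD 600 nm every 20 min over 16 h; IC50 derived from growth inhibition during logarithmic phase.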

SMILES	IC50
CC(C)(N)COc1cc(C#N)c2c(c1)CC(CNCCC1CN(c3cnc4c(n3)NC(=O)CO4)C(=O)O1)C2 (stereo not drawn) [Example 204, 6-(2-amino-2-methylpropoxy)-2-(((2-(2-oxo-3-(3-oxo-3,4-dihydro-2H-pyrazino[2,3-b][1,4]oxazin-6-yl)oxazolidin-5-yl)ethyl)amino)methyl)-2,3-dihydro-1H-indene-4-carbonitrile]	< 97.7 nM
Cc1c(OCC2(N)CC2)nc(C#N)c2c1CC(CNCCC1CN(c3ccc4c(n3)NC(=O)CO4)C(=O)O1)C2 (stereo not drawn) [Example 213, 3-[(1-aminocyclopropyl)methoxy]-4-methyl-6-[[2-[2-oxo-3-(3-oxo-4H-pyrido[3,2-b][1,4]oxazin-6-yl)-1,3-oxazolidin-5-yl]ethylamino]methyl]-6,7-dihydro-5H-cyclopenta[c]pyridine-1-carbonitrile]	< 97.7 nM
CC(C)(N)COc1cc(C#N)c2c(c1)CC(CNCCC1CN(c3ccc4c(n3)NC(=O)CO4)C(=O)O1)C2 (stereo not drawn) [Example 203, 6-(2-amino-2-methylpropoxy)-2-(((2-(2-oxo-3-(3-oxo-3,4-dihydro-2H-pyrido[3,2-b][1,4]oxazin-6-yl)oxazolidin-5-yl)ethyl)amino)methyl)-2,3-dihydro-1H-indene-4-carbonitrile; 2,2,2-trifluoroacetic acid]	< 97.7 nM
N[C@H]1c2cccc(Cl)c2C[C@@H]1CNCC[C@H]1CN(c2cnc3c(n2)NC(=O)CO3)C(=O)O1 [Example 401, 6-[(5S)-5-[2-[[(1R,2R)-1-amino-4-chloro-2,3-dihydro-1H-inden-2-yl]methylamino]ethyl]-2-oxo-1,3-oxazolidin-3-yl]-4H-pyrazino[2,3-b][1,4]oxazin-3-one]	< 97.7 nM
NC1c2cccc(Cl)c2CC1CCN1CC2(C1)CN(c1ccc3c(n1)NC(=O)CO3)C(=O)O2 (racemic) [Example 195, 6-[6-oxo-2-[2-[rac-1,2-trans-1-amino-4-chloro-2,3-dihydro-1H-inden-2-yl]ethyl]-5-oxa-2,7-diazaspiro[3.4]octan-7-yl]-4H-pyrido[3,2-b][1,4]oxazin-3-one; 2,2,2-trifluoroacetic acid]	< 97.7 nM
O=C1COc2ncc(N3CC(CCNCC4Cc5cc(OC6COC6)cc(F)c5C4)OC3=O)nc2N1 (stereo not drawn) [Example 323, 6-[5-[2-[[4-fluoro-6-(oxetan-3-yloxy)-2,3-dihydro-1H-inden-2-yl]methylamino]ethyl]-2-oxo-1,3-oxazolidin-3-yl]-4H-pyrazino [2,3-b] [1,4]oxazin-3-one]	250 nM
NCCOc1ccc2c(c1Cl)CC(NCCCC1CN(c3ccc4c(n3)NC(=O)CO4)C(=O)O1)C2 (stereo not drawn) [Example 118, 6-[5-[3-[[5-(2-aminoethoxy)-4-chloro-2,3-dihydro-1H-inden-2-yl]amino]propyl]-2-oxo-1,3-oxazolidin-3-yl]-4H-pyrido[3,2-b][1,4]oxazin-3-one; formic acid]	< 97.7 nM
Cc1nccc2c1CC(CNCCC1CN(c3ccc4c(n3)NC(=O)CO4)C(=O)O1)C2 (stereo not drawn) [Example 88, 6-[5-[2-[(1-methyl-6,7-dihydro-5H-cyclopenta[c]pyridin-6-yl)methylamino]ethyl]-2-oxo-1,3-oxazolidin-3-yl]-4H-pyrido[3,2-b][1,4]oxazin-3-one]	168 nM
Cc1nc(OCCNC(C)C)c(C)c2c1CC(CNCCC1CN(c3ccc4c(n3)NC(=O)CO4)C(=O)O1)C2 (stereo not drawn) [Example 201, 6-[5-[2-[[1,4-dimethyl-3-[2-(propan-2-ylamino)ethoxy]-6,7-dihydro-5H-cyclopenta[c]pyridin-6-yl]methylamino]ethyl]-2-oxo-1,3-oxazolidin-3-yl]-4H-pyrido[3,2-b][1,4]oxazin-3-one]	157 nM
CCNC(=O)COc1cc(F)c2c(c1)CC(CNCCC1CN(c3cnc4c(n3)NC(=O)CO4)C(=O)O1)C2 (stereo not drawn) [Example 308, N-ethyl-2-[[7-fluoro-2-[[2-[2-oxo-3-(3-oxo-4H-pyrazino[2,3-b][1,4]oxazin-6-yl)-1,3-oxazolidin-5-yl]ethylamino]methyl]-2,3-dihydro-1H-inden-5-yl]oxy]acetamide; formic acid]	471 nM
Cc1nc(OCC2(N)CC2)c(C#N)c2c1CC(CNCCC1CN(c3ccc4c(n3)NC(=O)CO4)C(=O)O1)C2 (stereo not drawn) [Example 214, 3-[(1-aminocyclopropyl)methoxy]-1-methyl-6-[[2-[2-oxo-3-(3-oxo-4H-pyrido[3,2-b][1,4]oxazin-6-yl)-1,3-oxazolidin-5-yl]ethylamino]methyl]-6,7-dihydro-5H-cyclopenta[c]pyridine-4-carbonitrile]	< 97.7 nM
NC(=O)COc1cc(F)c2c(c1)CC(CNCCC1CN(c3cnc4c(n3)NC(=O)CO4)C(=O)O1)C2 (stereo not drawn) [Example 305, 2-[[7-fluoro-2-[[2-[2-oxo-3-(3-oxo-4H-pyrazino[2,3-b][1,4]oxazin-6-yl)-1,3-oxazolidin-5-yl]ethylamino]methyl]-2,3-dihydro-1H-inden-5-yl]oxy]acetamide]	< 97.7 nM
Cc1c(OCC2(N)CC2)ncc2c1CC(CNCCC1CN(c3ccc4c(n3)NC(=O)CO4)C(=O)O1)C2 (stereo not drawn) [Example 217, 6-[5-[2-[[3-[(1-aminocyclopropyl)methoxy]-4-methyl-6,7-dihydro-5H-cyclopenta[c]pyridin-6-yl]methylamino]ethyl]-2-oxo-1,3-oxazolidin-3-yl]-4H-pyrido[3,2-b][1,4]oxazin-3-one]	< 97.7 nM
CC1(CCNCC2Cc3c(Cl)cccc3C2N)CN(c2cnc3c(n2)NC(=O)CO3)C(=O)O1 (racemic) [Example 375, 6-[5-methyl-2-oxo-5-[2-[(rac-1,2-trans-1-amino-4-chloro-2,3-dihydro-1H-inden-2-yl)methylamino]ethyl]-1,3-oxazolidin-3-yl]-4H-pyrazino[2,3-b][1,4]oxazin-3-one]	351 nM
NC1(CNCCC2CN(c3ccc4c(n3)NC(=O)CO4)C(=O)O2)Cc2cccc(Cl)c2C1 (stereo not drawn) [Example 240, 6-[5-[2-[(2-Amino-4-chloro-1,3-dihydroinden-2-yl)methylamino]ethyl]-2-oxo-1,3-oxazolidin-3-yl]-4H-pyrido[3,2-b][1,4]oxazin-3-one; formic acid]	278 nM
O=C1COc2ccc(N3CC(CCCNC4Cc5ccnc(Cl)c5C4)OC3=O)nc2N1 (stereo not drawn) [Example 92, 6-[5-[3-[(1-chloro-6,7-dihydro-5H-cyclopenta[c]pyridin-6-yl)amino]propyl]-2-oxo-1,3-oxazolidin-3-yl]-4H-pyrido[3,2-b][1,4]oxazin-3-one]	373 nM
CC(N)COc1cc(F)c2c(c1)CC(CN1CCC3(CC1)CN(c1cnc4c(n1)NC(=O)CO4)C(=O)O3)C2 (stereo not drawn) [Example 260, 6-[8-[[6-(2-Aminopropoxy)-4-fluoro-2,3-dihydro-1H-inden-2-yl]methyl]-2-oxo-1-oxa-3,8-diazaspiro[4.5]decan-3-yl]-4H-pyrazino[2,3-b][1,4]oxazin-3-one; formic acid]	< 97.7 nM

same assay, conditions: strain Escherichia coli ATCC 25922; 10-point broth dilution, optical density at 600 nm over 16 h; read-out: Escherichia coli growth inhibition IC50

SMILES	IC50
CC(C)(N)COc1cc(F)c2c(c1)CC(CN1CCC3(CC1)CN(c1cnc4c(n1)NC(=O)CO4)C(=O)O3)C2 (single isomer, unassigned; enantiomer b) [Example 378, 6-[8-[[6-(2-Amino-2-methylpropoxy)-4-fluoro-2,3-dihydro-1H-inden-2-yl]methyl]-2-oxo-1-oxa-3,8-diazaspiro[4.5]decan-3-yl]-4H-pyrazino[2,3-b][1,4]oxazin-3-one; formic acid, Enantiomer B]	< 97.7 nM

— patent US20230167127A1, “COMPOUNDS AND THEIR USE IN THE TREATMENT OF BACTERIAL INFECTION” (Hoffmann-La Roche Inc., priority 2020, published 2023)
